Source: US10357537B2, “Cyclotides as immunosuppressive agents” (priority 2011, dated 2019)
Marks after values point to notes of the source that are not given here.

Experiments:
[1] = Relative hemolytic activity (other assays, Table 2); type: cell-based; conditions: some values given for the Ala mutant
[2] = Relative insecticidal activity (other assays, Table 2); conditions: in vivo
[3] = system: IL-2 surface receptor CD25 on PBMC; test: IL-2 surface receptor CD25 expression, FACS; type: cell-based, human; conditions: cyclotides 4 μM, CsA 5 μg/mL, PHA-L; stimulated untreated PBMCs = 100%
Method: PBMCs were isolated from blood samples of healthy adults that were provided by the transfusion center of the university hospital in Freiburg (Germany). […] The lymphocyte-enriched layer was transferred into a new vessel and washed three times with PBS and centrifuged again (10 min, twice with 300×g and last time with 800 rpm, 20° C.). For the following experiments, the cells were either stained with CFSE or diluted with medium to 4*10^6 cells/ml. Cells were counted in alight microscope using trypan blue staining and a hemocytometer.
(§1) Following purification, PBMCs were equilibrated for 2 h at 37° C. […] This was followed by washing of each well with 100 μl PBS (centrifugation for 5 min, 1000 rpm, 20° C.) and re-suspending the cells in 100 μl medium for further assays.
Activated cells were transferred into a 96-well plate, centrifuged (5 min, 1000 rpm, 20° C.), washed one time with 100 μl FACS-buffer and stained with CD25 PE for 15 min at 4° C. Then cells were washed twice with FCS-buffer and resuspended in 100 μl FACS-buffer, transferred into FACS vials with a total volume of 250 μl and the expression of IL2 surface receptor CD25 was measured by FACS analysis using a FACSCalibur instrument (BD Biosciences).
Amongst other pathways, T-cell proliferation is determined by binding of the cytokine IL-2 to its cell surface receptor. Therefore the influence of cyclotides on the expression of the IL-2 receptor was tested. […] As control substance CsA was used. […] Treatment with V10A yields 114%±12.5, V10K yields 112%±16.3 and T8K yields 114%±17.3 CD25 surface expression after 24 h as compared to the control (FIG. 11B).

[4] = system: PHA-L-stimulated PBMC; test: Proliferation of PHA-L-stimulated CFSE-labelled PBMC with or without exogenous IL-2; type: cell-based, human; conditions: cyclotides 4 μM, CsA 5 μg/mL, 3 day culture; for proliferation with exogenous IL-2: IL-2 10 U/mL
Method: FIG. 13. Proliferation capacity of cyclotide-treated PBMC in the presence of exogenous IL-2. […] The cells were cultured without exogenous IL-2 (10 U/mL) (A and B) or in the presence of IL-2 (C and D). The CFSE-labelled cells were measured after a 3 day culture period by flow cytometry and representative data are presented in dot plots (A and C). Data are presented as mean and standard deviation (SD) of three independent experiments.
as §1
Purified PBMCs (5*10^6 cells/ml) were incubated with […] of the fluorescent dye CFSE (5-carbofluoreszenein-ciacetat-succinylester) for 10 min at 37° C. The reaction was stopped using medium, cells were washed one time with medium by centrifugation (10 min, 300×g, 20° C.) and diluted with medium to 4*10^6 cells/ml.

[5] = system: IFN-gamma production of activated PBMCs; test: IFN-gamma secretion of PBMC, ELISA-based FACS; type: cell-based, human; conditions: 36 h past stimulation
Method: FIG. 14. IFN-γ secretion by cyclotide-treated PBMC. […] Untreated cells were used as control. Following 24 h or 36 h of cultivation, the cells were restimulated with PMA/Ionomycin for further 6 hour. The amount of IFN-γ was measured in the supernatant of cultured cells using an ELISA-based flow cytometric method. The data are presented as mean and standard deviation (SD) of three independent experiments.
Activated cells were resuspended in 50 μl of medium, transferred into a 96-well plate and treated with 10 μg/ml PHA-L. After incubation for 24 h cells were re-stimulated with PMA (50 ng/ml) und ionomycin (500 ng/ml) for 6 h. Next, the cells were transferred into Eppendorf tubes, centrifuged (5 min, 3000 RPM, 20° C.) und 50 μl of the supernatant was again transferred into new tubes and stored at −20° C. Production of cytokines was measured and quantified using the FlowCytomix™ kit according to manufacturer's instructions.
Therefore it is of interest to determine whether cyclotides only have anti-proliferative effects or also affect the effector function of T-lymphocytes, which would directly relate to changes in the IFN-gamma and TNF-alpha production. Therefore, the production of both cytokines of cyclotide-treated, activated PBMCs at an early time point after PBMC activation was tested.

[6] = system: activated human primary PBMC; test: Anti-proliferative CFSE cell division assay on anti-CD3/CD28-activated PBMC; conditions: PBMCs, anti-CD3/28 mAbs, 72 h, cyclotides 1.8-14 μM; n.a. = not active
Method: Human peripheral blood mononuclear cells (PBMC) were isolated from the blood of healthy adult donors obtained from the Blood Transfusion Centre (University Medical Center, Freiburg, Germany). Venous blood was centrifuged on a LymphoPrep™ gradient (density: 1.077 g/cm^3, 20 min, 500×g, 20° C.; Progen, Heidelberg, Germany). Afterwards cells were washed twice with medium and cell viability and concentration was determined using the trypan blue exclusion test. PBMC were cultured in RPMI 1640 medium supplemented with 10% heat-inactivated fetal calf serum (PAA, Coelbe, Germany), 2 mM L-glutamine, 100 U/mL penicillin and […] (all from Invitrogen, Karlsruhe, Germany). The cells were cultured at 37° C. in a humidified incubator with a 5% CO2/95% air atmosphere. All experiments conducted on human material were approved by the Ethics committee of the University of Freiburg.
(§2) After cultivation, the cells were assessed in bioassays as described in the text.
For cell proliferation and cell division tracking analysis PBMC were harvested and washed twice in cold PBS and resuspended in PBS at a concentration of 5×10^6 cells/mL. Cells were incubated for 10 min at 37° C. with carboxyfluorescein diacetate succinimidyl ester (CFSE; 5 μM: Sigma-Aldrich, Taufkirchen, Germany). The staining reaction was stopped by washing twice with complete medium. Afterwards, the cell division progress was analysed using flow cytometric analysis.
The anti-proliferative effect of cyclotide mutants/variants was tested according to Example 5. […] Afterwards the cell proliferation was assessed by analysing cell division using flow cytometric-based histogram analysis.

[7] = system: nematodes; test: Relative nematocidal activity (other assays, Table 2); type: in vivo; conditions: some cells print two values separated by a slash
[8] = system: degranulation marker LAMP-1 (CD107a) on activated PBMC; test: CD107a degranulation analysis; type: cell-based, human; conditions: after 36 h; T20K 4 μM, CsA 5 μg/mL
Method: FIG. 16. Degranulation capacity of cyclotide-treated activated human PBMC. […] After 36 hour of cultivation the cells were restimulated with PMA/Ionomycin for 2.5 hours in the presence of a CD107a mAbs and GolgiStop reagent to determine the amount of degranulation by flow cytometry. Representative data are shown in dot plots (A) and in (B) data are presented as mean and standard deviation (SD) of three independent experiments.
Activated cells were grown for 36 h and then treated for re-stimulation with PMA (50 ng/ml) und ionomycin (500 ng/ml) and stained with CD107a PE. After 1 h the reaction was stopped with 2 μl Golgi-Stop (1:10) and incubated for 2.5 h at 37° C. The cells were transferred into a 96-well plate, centrifuged (5 min, 1000 RPM, 20° C.) and washed with 100 μl FACS-buffer. Afterwards, PBMCs were stained with CD8 PE-Cy5 for 15 min at 4° C. and following to wash cycles with FACS-buffer the cells were resuspended in 100 μl, transferred into FACS vials with a total volume of 250 μl and the degranulation was measured by FACS analysis.
After determining the influence of cyclotide treatment on the effector function of PBMCs on the basis of measuring IFN-gamma and TNF-alpha cytokine levels, it is of interest to determine an effect of cyclotides on the degranulation activity. Activation of cytotoxic CD8^+-lymphocytes lead to a release of cytolytic granules, which contain/express lysosomal-associated membrane protein 1 (CD107; LAMP-1). During degranulation, the granule vesicle membranes fuse with the membranes of activated CD8^+-lymphocytes and therefore LAMP-1 can be used as a marker protein for the cytotoxic activity of T-lymphocytes, which can be measured with FACS. After 36 h, 42%±21.4 of the CsA- and 49%±16.8 of the T20K-treated cells contain the degranulation marker LAMP-1 as compared to the control (FIG. 16). This can be interpreted in the way that CsA- and T20K-treated cells have reduced cytotoxicity.

[9] = system: activated human primary PBMC; test: Flow cytometric forward-side-scatter analysis of viability and proliferation; type: cell-based; conditions: extract 50-100 μg/mL; CPT 30 μg/mL
Method: After completion of the chemical analysis, different concentrations of the crude O. affinis cyclotide extract were tested for its anti-proliferative capacity on activated human primary PBMC (FIG. 2).

[10] = system: activated human primary PBMC; conditions: kalata B1 1.8-14 μM; CPT 30 μg/mL; melittin up to 1.6 μM
Method: as §2
The levels of apoptosis were determined using the annexin V-FITC apoptosis detection kit (eBioscience, Frankfurt, Germany) according to the manufacturer's instructions. After annexin V staining, propidium iodide solution (PI; eBioscience) was added and the cells were incubated in the dark, followed by a flow cytometric analysis to determine the amount of apoptosis and necrosis. CPT (30 μg/mL) and Triton-X 100 (0.5%) was used as positive controls for apoptosis and necrosis, respectively.
Cellular apoptotic and necrotic hallmarks were measured by using inter-nucleosomal DNA fragmentation (subG1^+ cells) assay and phosphatidylserine surface analysis through a single and combinatory annexin V and propidium iodide staining. This double staining process allowed the discrimination between viable (annexin^−/PI^−), apoptotic (annexin^+/PI^− and annexin^+/PI^+) or necrotic (annexin^−/PI^+) cells.

| Molecule | Relative activity in other assays (fold difference to kB1): hemolytic [1] | Relative activity in other assays (fold difference to kB1): insecticidal [2] | CD25 expression after 48 h [3] | CD25 surface expression after 24 hours [3] | proliferation with exogenous IL-2 [4] | proliferation as compared to the control cells, without exogenous IL-2 [4] | IFN-gamma production as compared to the control, 36 h [5] | IC50 (μM) ± STDEV, inhibition of PBMC proliferation [6] | Relative activity in other assays (fold difference to kB1): nematocidal [7] | cells containing the degranulation marker LAMP-1 as compared to the control [8] | dead cells / harm to cells (forward-side-scatter) [9] | induction of apoptosis [10] |
| --- | --- | --- | --- | --- | --- | --- | --- | --- | --- | --- | --- | --- |
| kalata B1 mutant GLPVCGETCAGGTCNTPGCTCSWPVCTRN (SEQ ID No. 9) [Kalata V10A] | 0.5 fold difference to kB1 | 1.1 fold difference to kB1 | no significant change in receptorexpression | 114%±12.5 | did not change the effect on proliferation | no effect on the proliferation | did not induce significant changes in the level of IFN-gamma | – | – | – | – | – |
| kalata B1 mutant GLPVCGEKCVGGTCNTPGCTCSWPVCTRN (SEQ ID No. 8) [Kalata B1 T8K, Kalata T8K] | – | 0.2 fold difference to kB1 | no significant change in receptorexpression | 114%±17.3 | did not change the effect on proliferation | no effect on the proliferation | did not induce significant changes in the level of IFN-gamma | not active (n.a.)^b | <0.2 fold difference to kB1 | no influence on the degranulation activity | – | – |
| CC[C@@]1(O)C(=O)OCc2c1cc1n(c2=O)Cc2cc3ccccc3nc2-1 [camptothecin, reference compound] | – | – | – | – | – | – | – | – | – | – | induced a high proportion of dead cells | significantly increased the fractions of these cells |
